This passage reports IC50 results from patent US8551984B2, “Aminopyrimidines as SYK inhibitors” (Merck Sharp & Dohme Corp., priority 2009, dated 2013).

Some results are limits rather than exact numbers.

For the assay, the target named is recombinant human SYK (GST-hSYK fusion protein) (Homo sapiens, UniProt P43405). In words: biochemical. The conditions noted are these: rhSYK Activity (IC50), recombinant human GST-SYK 5 pM, ATP 25 μM, biotinylated substrate peptide 250 nM, HTRF, 10-dose titration.
Text: Homogeneous Time-Resolved Fluorescence (HTRF) Assay for the Recombinant Human SYK Enzyme:
As to `Cc1cc(Nc2nccc(C(F)(F)F)n2)cc(-c2cnc(C(=O)NCC(C)(C)O)s2)c1` [Example 87A-11], the IC50 was < 0.1 µM.

As for `Cc1cc(Nc2nccc(C(F)(F)F)n2)cc(-c2cnc(C(=O)NC(C)(CO)CO)s2)c1` [Example 87A-12], the IC50 was < 0.1 µM.

On to `Cc1cc(Nc2nccc(C(F)(F)F)n2)cc(-c2cnc(C(=O)NCc3cnn(C)c3)s2)c1` [Example 87A-13], for which the IC50 lay within 0.1 to 1 µM. The figure for `Cc1cc(Nc2nccc(C(F)(F)F)n2)cc(-c2cnc(C(=O)NCc3cncn3C)s2)c1` [Example 87A-14] is < 0.1 µM; for `Cc1cc(Nc2nccc(C(F)(F)F)n2)cc(-c2cnc(C(=O)NCCc3c[nH]cn3)s2)c1` [Example 87A-15] it is < 0.1 µM. With `Cc1cc(Nc2nccc(C(F)(F)F)n2)cc(-c2cnc(C(=O)NC3(CO)CCCC3)s2)c1` [Example 87A-16] the figure was 1 to 10 µM; with `Cc1cc(Nc2nccc(C(F)(F)F)n2)cc(-c2cnc(C(=O)N(C)CCC3OCCO3)s2)c1` [Example 87A-17], 0.1 to 1 µM; with `C=C(F)CNC(=O)c1ncc(-c2cc(C)cc(Nc3nccc(C(F)(F)F)n3)c2)s1` [Example 87A-19], < 0.1 µM. The figure for `Cc1cc(Nc2nccc(C(F)(F)F)n2)cc(-c2cnc(C(=O)NCC3COCCO3)s2)c1` (stereo not drawn) [Example 87A-20] is < 0.1 µM; for `Cc1cc(Nc2nccc(C(F)(F)F)n2)cc(-c2cnc(C(=O)N(C)Cc3nccn3C)s2)c1` [Example 87A-21] it is < 0.1 µM; for `Cc1cc(Nc2nccc(C(F)(F)F)n2)cc(-c2cnc(C(=O)N(C)CC3COCCO3)s2)c1` (stereo not drawn) [Example 87A-23] it is 0.1 to 1 µM. As to `COCC(O)CNC(=O)c1ncc(-c2cc(C)cc(Nc3nccc(C(F)(F)F)n3)c2)s1` (stereo not drawn) [Example 87A-24], the IC50 is < 0.1 µM. With `Cc1cc(Nc2nccc(C(F)(F)F)n2)cc(-c2cnc(C(=O)NCc3ncc[nH]3)s2)c1` [Example 87A-25] the figure was < 0.1 µM; with `Cc1cc(Nc2nccc(C(F)(F)F)n2)cc(-c2cnc(C(=O)N(C)CC(O)CO)s2)c1` (stereo not drawn) [Example 87A-26], < 0.1 µM; with `Cc1cc(Nc2nccc(C(F)(F)F)n2)cc(-c2cnc(C(=O)N(C)CCS(C)(=O)=O)s2)c1` [Example 87A-27], 1 to 10 µM. In the case of `CCN(C)C(=O)c1ncc(-c2cc(C)cc(Nc3nccc(C(F)(F)F)n3)c2)s1` [Example 87A-28], the IC50 lay in the range of 0.1 to 1 µM. With `Cc1cc(Nc2nccc(C(F)(F)F)n2)cc(-c2cnc(C(=O)N(CCO)CCO)s2)c1` [Example 87A-29] the figure was < 0.1 µM. With `CNC(=O)CN(C)C(=O)c1ncc(-c2cc(C)cc(Nc3nccc(C(F)(F)F)n3)c2)s1` [Example 87A-30] the figure was < 0.1 µM.

As to `Cc1cc(Nc2nccc(C(F)(F)F)n2)cc(-c2cnc(C(=O)N[C@H](c3ccccc3)[C@@H](O)C(=O)O)s2)c1` [Example 87A-32], the 50% inhibitory concentration (IC50) is < 0.1 µM. The figure for `Cc1cc(Nc2nccc(C(F)(F)F)n2)cc(-c2cnc(C(=O)NC(CO)(CO)CO)s2)c1` [Example 87A-34] is < 0.1 µM; for `Cc1cc(Nc2nccc(C(F)(F)F)n2)cc(-c2cnc(C(=O)NCCC(=O)O)s2)c1` [Example 87A-35] it is < 0.1 µM; for `Cc1cc(Nc2nccc(C(F)(F)F)n2)cc(-c2cnc(C(=O)NCCCN(CCO)CCO)s2)c1` [Example 87A-36] it is < 0.1 µM. With `Cc1cc(Nc2nccc(C(F)(F)F)n2)cc(-c2cnc(C(=O)NC3CCC(C(=O)O)CC3)s2)c1` (stereo not drawn) [Example 87A-37] the figure was < 0.1 µM; with `NC(=O)c1ncc(-c2cccc(Nc3nccc(C(F)(F)F)n3)c2)s1` [Example 87A-38], < 0.1 µM; with `Cc1cc(Nc2nccc(C(F)(F)F)n2)cc(-c2cnc(C(=O)N3CCCC3)s2)c1` [Example 87B-1], 0.1 to 1 µM.

As to `Cc1cc(Nc2nccc(C(F)(F)F)n2)cc(-c2cnc(C(=O)N3CCN(C)CC3)s2)c1` [Example 87B-3], the 50% inhibitory concentration (IC50) was 0.1 to 1 µM. With `Cc1cc(Nc2nccc(C(F)(F)F)n2)cc(-c2cnc(C(=O)N3CCN(C)C(=O)C3)s2)c1` [Example 87B-4] the figure was < 0.1 µM. The figure for `Cc1cc(Nc2nccc(C(F)(F)F)n2)cc(-c2cnc(C(=O)N3CCN(C)C(=O)C3C)s2)c1` (stereo not drawn) [Example 87B-5] is 0.1 to 1 µM; for `Cc1cc(Nc2nccc(C(F)(F)F)n2)cc(-c2cnc(C(=O)N3CCn4cccc4C3)s2)c1` [Example 87B-6] it is < 0.1 µM; for `CC(=O)N1CCN(C(=O)c2ncc(-c3cc(C)cc(Nc4nccc(C(F)(F)F)n4)c3)s2)CC1` [Example 87B-7] it is 0.1 to 1 µM.

On to `Cc1cc(Nc2nccc(C(F)(F)F)n2)cc(-c2cnc(C(=O)N3CCn4ccnc4C3)s2)c1` [Example 87B-9], for which the half-inhibitory concentration (IC50) is < 0.1 µM. The figure for `Cc1cc(Nc2nccc(C(F)(F)F)n2)cc(-c2cnc(C(=O)N3CC[C@@H](CO)C3)s2)c1` [Example 87B-11] is < 0.1 µM. With `Cc1cc(Nc2nccc(C(F)(F)F)n2)cc(-c2cnc(C(=O)N3CCC(C)(O)C3)s2)c1` (stereo not drawn) [Example 87B-12] the figure was < 0.1 µM; with `Cc1cc(Nc2nccc(C(F)(F)F)n2)cc(-c2cnc(C(=O)N3CCC[S+]([O-])CC3)s2)c1` (stereo not drawn) [Example 87B-13], < 0.1 µM. The figure for `Cc1cc(Nc2nccc(C(F)(F)F)n2)cc(-c2cnc(C(=O)N3CCS(=O)(=O)CC3)s2)c1` [Example 87B-14] is 0.1 to 1 µM; for `Cc1cc(Nc2nccc(C(F)(F)F)n2)cc(-c2cnc(C(=O)N3CCN(CC(F)(F)F)CC3)s2)c1` [Example 87B-15] it is 1 to 10 µM; for `Cc1cc(Nc2nccc(C(F)(F)F)n2)cc(-c2cnc(C(=O)N3CC[C@H](CO)C3)s2)c1` [Example 87B-16] it is < 0.1 µM. As for `Cc1cc(Nc2nccc(C(F)(F)F)n2)cc(-c2cnc(C(=O)N3CCC(O)C3)s2)c1` (stereo not drawn) [Example 87B-17], the IC50 was < 0.1 µM. `Cc1cc(Nc2nccc(C(F)(F)F)n2)cc(-c2cnc(C(=O)N3C[C@@H](O)[C@@H](O)C3)s2)c1` [Example 87B-18]: the IC50 was < 0.1 µM. With `Cc1cc(Nc2nccc(C(F)(F)F)n2)cc(-c2cnc(C(=O)N3CCC(C(=O)O)CC3)s2)c1` [Example 87B-19] the figure was < 0.1 µM; with `Cc1cc(Nc2nccc(C(F)(F)F)n2)cc(-c2cnc(C(=O)N3CC(O)CC3C(=O)O)s2)c1` (stereo not drawn) [Example 87B-20], < 0.1 µM; with `COC(=O)C1CC(O)CN1C(=O)c1ncc(-c2cc(C)cc(Nc3nccc(C(F)(F)F)n3)c2)s1` (stereo not drawn) [Example 87B-21], < 0.1 µM. With `Cc1cc(Nc2nccc(C(F)(F)F)n2)cc(-c2cnc(C(=O)N3CCC(O)(C(=O)O)CC3)s2)c1` [Example 87B-22] the figure was < 0.1 µM; with `Cc1cc(Nc2nccc(C(F)(F)F)n2)cc(-c2cnc(CNCC3CCC(=O)N3)s2)c1` (stereo not drawn) [Example 88, 5-[({[5-(3-methyl-5-{[4-(trifluoromethyl)pyrimidin-2-yl]amino}phenyl)-1,3-thiazol-2-yl]-methyl}amino)methyl]pyrrolidin-2-one], < 0.1 µM; with `Cc1cc(Nc2nccc(C(F)(F)F)n2)cc(-c2cnc(CNc3cncnc3)s2)c1` [Example 88A-1], < 0.1 µM.

`Cc1cc(Nc2nccc(C(F)(F)F)n2)cc(-c2cnc(CNCC(O)C(F)F)s2)c1` (stereo not drawn) [Example 88A-2]: the IC50 is < 0.1 µM.

As to `Cc1cc(Nc2nccc(C(F)(F)F)n2)cc(-c2cnc(CNCc3n[nH]c(=O)[nH]3)s2)c1` [Example 88A-3], the IC50 was < 0.1 µM. The figure for `Cc1cc(Nc2nccc(C(F)(F)F)n2)cc(-c2cnc(CNC3CCS(=O)(=O)C3)s2)c1` (stereo not drawn) [Example 88A-5] is < 0.1 µM; for `Cc1cc(Nc2nccc(C(F)(F)F)n2)cc(-c2cnc(CN(C)C(C3CC3)C3CC3)s2)c1` [Example 88A-7] it is < 0.1 µM; for `C=C(F)CNCc1ncc(-c2cc(C)cc(Nc3nccc(C(F)(F)F)n3)c2)s1` [Example 88A-8] it is < 0.1 µM. As for `Cc1cc(Nc2nccc(C(F)(F)F)n2)cc(-c2cnc(CNC(C)c3ccccn3)s2)c1` (stereo not drawn) [Example 88A-9], the IC50 was < 0.1 µM. With `Cc1cc(Nc2nccc(C(F)(F)F)n2)cc(-c2cnc(CNc3cn(C(C)C)nn3)s2)c1` [Example 88A-10] the figure was < 0.1 µM; with `Cc1cc(Nc2nccc(C(F)(F)F)n2)cc(-c2cnc(CN(C)CCO)s2)c1` [Example 88A-12], < 0.1 µM; with `Cc1cc(Nc2nccc(C(F)(F)F)n2)cc(-c2cnc(CN(CCO)CCO)s2)c1` [Example 88A-13], < 0.1 µM. `Cc1cc(Nc2nccc(C(F)(F)F)n2)cc(-c2cnc(CNC(C)(CO)CO)s2)c1` [Example 88A-14]: the 50% inhibitory concentration (IC50) was < 0.1 µM. With `Cc1cc(Nc2nccc(C(F)(F)F)n2)cc(-c2cnc(CNC(C)CO)s2)c1` (stereo not drawn) [Example 88A-15] the figure was < 0.1 µM; with `CCC(CO)NCc1ncc(-c2cc(C)cc(Nc3nccc(C(F)(F)F)n3)c2)s1` (stereo not drawn) [Example 88A-16], < 0.1 µM; with `Cc1cc(Nc2nccc(C(F)(F)F)n2)cc(-c2cnc(CNCC(C)O)s2)c1` (stereo not drawn) [Example 88A-17], < 0.1 µM. As to `Cc1cc(Nc2nccc(C(F)(F)F)n2)cc(-c2cnc(CNCCO)s2)c1` [Example 88A-18], the IC50 is < 0.1 µM. The figure for `Cc1cc(Nc2nccc(C(F)(F)F)n2)cc(-c2cnc(CNCCCO)s2)c1` [Example 88A-19] is < 0.1 µM; for `Cc1cc(Nc2nccc(C(F)(F)F)n2)cc(-c2cnc(CNCCCCO)s2)c1` [Example 88A-20] it is < 0.1 µM; for `Cc1cc(Nc2nccc(C(F)(F)F)n2)cc(-c2cnc(CNC3(C(=O)O)CC3)s2)c1` [Example 88A-21] it is < 0.1 µM. Turning to `Cc1cc(Nc2nccc(C(F)(F)F)n2)cc(-c2cnc(CNCC(N)=O)s2)c1` [Example 88A-22], the IC50 was < 0.1 µM. The figure for `Cc1cc(Nc2nccc(C(F)(F)F)n2)cc(-c2cnc(CNCCC(N)=O)s2)c1` [Example 88A-23] is < 0.1 µM; for `Cc1cc(Nc2nccc(C(F)(F)F)n2)cc(-c2cnc(CNCCS(C)(=O)=O)s2)c1` [Example 88A-24] it is < 0.1 µM; for `Cc1cc(Nc2nccc(C(F)(F)F)n2)cc(-c2cnc(CN(C)CCS(C)(=O)=O)s2)c1` [Example 88A-25] it is < 0.1 µM.
